This is an account of results in ChEMBL document CHEMBL1147502, “Isopropyl amide derivatives of potent and selective muscarinic M2 receptor antagonists” (Bioorg Med Chem Lett, 2004).

The structures appear in SMILES notation.

In this test the target is T1, Muscarinic acetylcholine receptor M2 (Homo sapiens, UniProt P08172).
T1 sequence (P08172 whole entry): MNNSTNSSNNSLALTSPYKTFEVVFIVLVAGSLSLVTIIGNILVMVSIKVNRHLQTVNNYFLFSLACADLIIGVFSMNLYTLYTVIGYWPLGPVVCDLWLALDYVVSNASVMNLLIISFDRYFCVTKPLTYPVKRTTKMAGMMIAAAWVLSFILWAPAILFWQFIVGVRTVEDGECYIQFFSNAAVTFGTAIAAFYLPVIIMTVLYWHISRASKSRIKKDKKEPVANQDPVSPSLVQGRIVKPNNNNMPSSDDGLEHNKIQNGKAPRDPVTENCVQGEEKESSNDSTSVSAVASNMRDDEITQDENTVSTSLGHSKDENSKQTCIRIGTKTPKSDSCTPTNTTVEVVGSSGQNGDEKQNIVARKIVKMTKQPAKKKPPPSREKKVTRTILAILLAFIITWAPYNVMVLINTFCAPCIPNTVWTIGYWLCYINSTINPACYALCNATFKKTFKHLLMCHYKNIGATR
Put plainly: Binding affinity against cloned human muscarinic acetylcholine receptor M2.
The molecule `Cc1ccccc1C(=O)N1CCC(N2CCC(C3(c4ccc(C(=O)NC(C)C)cc4)OCCO3)CC2)CC1` came in with a Ki of 9 nM. This lies in the single-digit nanomolar range.
The same measure for `CC(C)(C)NC(=O)c1ccc(CC2CCN(C3CCN(C(=O)c4ccc(F)c5ccccc45)CC3)CC2)cc1`: 18 nM.
The same measure for `CC(C)NC(=O)c1ccc(CC2CCN(C3CCN(C(=O)c4ccc5[nH]ccc5c4)CC3)CC2)cc1`: 5 nM; for `CC(C)NC(=O)c1ccc(CC2CCN(C3CCN(C(=O)c4cccc5[nH]ccc45)CC3)CC2)cc1`: 1.6 nM.
For `Cc1cccc(C(=O)N2CCC(N3CCC(C4(c5ccc(C(=O)NC(C)C)cc5)OCCO4)CC3)CC2)c1N` the value was 2.7 nM.
In turn, `Cc1ccccc1C(=O)N1CCC(N2CCC(Cc3ccc(C(=O)NC(C)C)cc3)CC2)CC1` yielded an inhibition constant (Ki) of 7 nM.
For `O=C(Nc1ccccc1)c1ccc(CC2CCN(C3CCN(C(=O)c4ccc(F)c5ccccc45)CC3)CC2)cc1` the value was 104 nM; for `Cc1cccc(C(=O)N2CCC(N3CCC(Cc4ccc(C(=O)NC(C)C)cc4)CC3)CC2)c1N`, 9 nM; for `CC(C)NC(=O)c1ccc(CC2CCN(C3CCN(C(=O)c4ccccc4N)CC3)CC2)cc1`, 78 nM.
For `CC(C)NC(=O)c1ccc(CC2CCN(C3CCN(C(=O)c4c[nH]c5ccccc45)CC3)CC2)cc1` the value was 6 nM; for `CC(C)NC(=O)c1ccc(CC2CCN(C3CCN(C(=O)c4ccccc4Cl)CC3)CC2)cc1`, 12 nM.
As to `CC(C)NC(=O)c1ccc(C2(C3CCN(C4CCN(C(=O)c5ccc(F)c6ccccc56)CC4)CC3)OCCO2)cc1`, the Ki turned out to be 2.4 nM.
Consider `Cc1c(N)cccc1C(=O)N1CCC(N2CCC(Cc3ccc(C(=O)NC(C)C)cc3)CC2)CC1`, for which affinity was put at a Ki of 1.6 nM.
The same measure for `Cc1ccccc1C(=O)N1CCC(N2CCC(Cc3ccc(C(=O)NC4CCCCC4)cc3)CC2)CC1`: 15 nM; for `CC(C)NC(=O)c1ccc(CC2CCN(C3CCN(C(=O)c4cccc5c(F)cc(F)cc45)CC3)CC2)cc1`: 5 nM.
For `CC(C)NC(=O)c1ccc(CC2CCN(C3CCN(C(=O)c4ccc(F)c5ccccc45)CC3)CC2)cc1` the value was 2.1 nM; for `Cc1c(N)cccc1C(=O)N1CCC(N2CCC(C3(c4ccc(C(=O)NC(C)C)cc4)OCCO3)CC2)CC1`, 1.9 nM; for `CC(C)NC(=O)c1ccc(C2(C3CCN(C4CCN(C(=O)c5ccccc5Cl)CC4)CC3)OCCO2)cc1`, 35 nM.
The same measure for `CC(C)NC(=O)c1ccc(CC2CCN(C3CCN(C(=O)c4ccc(F)c5c(F)cccc45)CC3)CC2)cc1`: 9 nM.
As for `Cc1ccccc1C(=O)N1CCC(N2CCC(Cc3ccc(C(=O)Nc4ccccc4)cc3)CC2)CC1`, the Ki was found to be 122 nM.
For `Cc1ccccc1C(=O)N1CCC(N2CCC(Cc3ccc(C(=O)NC(C)(C)C)cc3)CC2)CC1` the value was 106 nM.
For `CC(C)S(=O)(=O)c1ccc(CC2CCN(C3CCN(C(=O)c4ccc(F)c5ccccc45)CC3)CC2)cc1` the value was 17 nM; for `CC(C)NC(=O)c1ccc(C2(C3CCN(C4CCN(C(=O)c5cccc6[nH]ccc56)CC4)CC3)OCCO2)cc1`, 1.1 nM; for `O=C(NC1CCCCC1)c1ccc(CC2CCN(C3CCN(C(=O)c4ccc(F)c5ccccc45)CC3)CC2)cc1`, 1300 nM.
The same measure for `CC(C)NC(=O)c1ccc(CC2CCN(C3CCN(C(=O)c4cccc5nc[nH]c45)CC3)CC2)cc1`: 27 nM.
Molecule `CC(C)NC(=O)c1ccc(CC2CCN(C3CCN(C(=O)c4ccnc5ccccc45)CC3)CC2)cc1` showed a Ki of 40 nM.
